Test results from PubChem BioAssay AID2060504 (Molecular Pharmacology Branch, DTP, NCI, 2025).

Test system: 636577-100-R-J1-PDC complex spheroid viability
Assay: Anticancer human tumor 636577-100-R-J1-PDC patient-derived endometrial adenocarcinoma cell line growth inhibition [GQUAD]
Conditions: for IC50: curve of first compound; for viability, T/C: stronger effect = lower value; active means viability on the fitted dose curve at most 10% of control; inactive means the rest
Procedure, shortened: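 Viability of tumor cells grown as complex spheroids with endothelial and stromal cells, exposed to drug combinations. Top concentration at or near clinical Cmax (else 10 microM), diluted in half-log increments.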

[1] = second compound 0.0316 µM, first compound 0.0316 µM
[2] = second compound 0.0316 µM, first compound 0.1 µM
[3] = second compound 0.0316 µM, first compound 0.316 µM
[4] = second compound 0.0316 µM, first compound 1 µM
[5] = second compound 0.0316 µM, first compound 3.16 µM
[6] = second compound 0.0316 µM, first compound 10 µM
[7] = second compound 0.1 µM, first compound 0.0316 µM
[8] = second compound 0.1 µM, first compound 0.1 µM
[9] = second compound 0.1 µM, first compound 0.316 µM
[10] = second compound 0.1 µM, first compound 1 µM
[11] = second compound 0.1 µM, first compound 3.16 µM
[12] = second compound 0.1 µM, first compound 10 µM
[13] = second compound 0.316 µM, first compound 0.0316 µM
[14] = second compound 0.316 µM, first compound 0.1 µM
[15] = second compound 0.316 µM, first compound 0.316 µM
[16] = second compound 0.316 µM, first compound 1 µM
[17] = second compound 0.316 µM, first compound 3.16 µM
[18] = second compound 0.316 µM, first compound 10 µM
[19] = second compound 1 µM, first compound 0.0316 µM
[20] = second compound 1 µM, first compound 0.1 µM
[21] = second compound 1 µM, first compound 0.316 µM
[22] = second compound 1 µM, first compound 1 µM
[23] = second compound 1 µM, first compound 3.16 µM
[24] = second compound 1 µM, first compound 10 µM
[25] = second compound 3.16 µM, first compound 0.0316 µM
[26] = second compound 3.16 µM, first compound 0.1 µM
[27] = second compound 3.16 µM, first compound 0.316 µM
[28] = second compound 3.16 µM, first compound 1 µM
[29] = second compound 3.16 µM, first compound 3.16 µM
[30] = second compound 3.16 µM, first compound 10 µM
[31] = second compound 10 µM, first compound 0.0316 µM
[32] = second compound 10 µM, first compound 0.1 µM
[33] = second compound 10 µM, first compound 0.316 µM
[34] = second compound 10 µM, first compound 1 µM
[35] = second compound 10 µM, first compound 3.16 µM
[36] = second compound 10 µM, first compound 10 µM
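Further: viability read after seven days of drug exposure.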
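Wherever viability, T/C is given: luminescence signal used as a proxy for viable cells; 100% = DMSO vehicle control wells.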

CC(=O)O[C@H]1C(=O)[C@@]2(C)[C@H]([C@H](OC(=O)c3ccccc3)[C@]3(O)C[C@H](OC(=O)[C@H](O)[C@@H](NC(=O)c4ccccc4)c4ccccc4)C(C)=C1C3(C)C)[C@]1(OC(C)=O)CO[C@@H]1C[C@@H]2O + Cc1[nH]c2ccc(F)cc2c1-c1nc2c3cccnc3c3ncccc3c2[nH]1
active: viability, T/C [12] 9.8% | viability, T/C [30] 8.71%
< 31.6 nM: IC50 (second compound 0.0316 µM) | IC50 (second compound 0.1 µM) | IC50 (second compound 0.316 µM) | IC50 (second compound 1 µM) | IC50 (second compound 3.16 µM) | IC50 (second compound 10 µM)
inactive: viability, T/C [1] 16.9% | viability, T/C [2] 14.4% | viability, T/C [3] 13.5% | viability, T/C [4] 12% | viability, T/C [5] 11.2% | viability, T/C [6] 11.2% | viability, T/C [7] 15.5% | viability, T/C [8] 13.5% | viability, T/C [9] 10.8% | viability, T/C [10] 9.49% | viability, T/C [11] 11.1% | viability, T/C [13] 17.3% | viability, T/C [14] 13.2% | viability, T/C [15] 11.6% | viability, T/C [16] 10.4% | viability, T/C [17] 9.79% | viability, T/C [18] 11.4% | viability, T/C [19] 16.5% | viability, T/C [20] 12% | viability, T/C [21] 12% | viability, T/C [22] 12.1% | viability, T/C [23] 10.9% | viability, T/C [24] 11% | viability, T/C [25] 15.3% | viability, T/C [26] 11.7% | viability, T/C [27] 13.8% | viability, T/C [28] 12.5% | viability, T/C [29] 10.7% | viability, T/C [31] 15.6% | viability, T/C [32] 13.5% | viability, T/C [33] 10.5% | viability, T/C [34] 11.4% | viability, T/C [35] 12.7% | viability, T/C [36] 12.6%

CC(=O)O[C@H]1C(=O)[C@@]2(C)[C@H]([C@H](OC(=O)c3ccccc3)[C@]3(O)C[C@H](OC(=O)[C@H](O)[C@@H](NC(=O)c4ccccc4)c4ccccc4)C(C)=C1C3(C)C)[C@]1(OC(C)=O)CO[C@@H]1C[C@@H]2O + CN(C)c1ccc(Nc2c3ccc(NC(=O)CCN4CCCC4)cc3nc3cc(NC(=O)CCN4CCCC4)ccc23)cc1
< 31.6 nM: IC50 (second compound 0.0316 µM) | IC50 (second compound 0.1 µM) | IC50 (second compound 0.316 µM) | IC50 (second compound 1 µM) | IC50 (second compound 3.16 µM) | IC50 (second compound 10 µM)
active: viability, T/C [10] 8.93% | viability, T/C [11] 9.82% | viability, T/C [12] 8.97% | viability, T/C [31] 4.59% | viability, T/C [32] 3.8% | viability, T/C [33] 2.57% | viability, T/C [34] 3.21% | viability, T/C [35] 3.16% | viability, T/C [36] 2.15%
inactive: viability, T/C [1] 20.1% | viability, T/C [2] 12.8% | viability, T/C [3] 13.3% | viability, T/C [4] 11.8% | viability, T/C [5] 11.5% | viability, T/C [6] 10.8% | viability, T/C [7] 18.8% | viability, T/C [8] 13.5% | viability, T/C [9] 11.4% | viability, T/C [13] 15.9% | viability, T/C [14] 12.3% | viability, T/C [15] 10.4% | viability, T/C [16] 12.6% | viability, T/C [17] 9.5% | viability, T/C [18] 10.1% | viability, T/C [19] 15.9% | viability, T/C [20] 12.8% | viability, T/C [21] 12.5% | viability, T/C [22] 11.6% | viability, T/C [23] 10% | viability, T/C [24] 10.4% | viability, T/C [25] 16.2% | viability, T/C [26] 12.7% | viability, T/C [27] 13.4% | viability, T/C [28] 11.6% | viability, T/C [29] 11.8% | viability, T/C [30] 11.2%

C#Cc1c(F)ccc2cc(O)cc(-c3ncc4c(N5CC6CCC(C5)N6)nc(OCC56CCCN5CC(F)C6)nc4c3F)c12 (stereo not drawn) + Cc1cnc(CNC(=O)c2c(=O)c3ccc(N4CCCN(C)CC4)nc3n3c2sc2ccccc23)cn1
< 31.6 nM: IC50 (second compound 0.0316 µM) | IC50 (second compound 0.1 µM) | IC50 (second compound 0.316 µM) | IC50 (second compound 1 µM) | IC50 (second compound 3.16 µM) | IC50 (second compound 10 µM)
inactive: viability, T/C [1] 48.3% | viability, T/C [2] 45.1% | viability, T/C [3] 46% | viability, T/C [4] 30.9% | viability, T/C [5] 38% | viability, T/C [6] 28.6% | viability, T/C [7] 31.6% | viability, T/C [8] 26.9% | viability, T/C [9] 25.8% | viability, T/C [10] 21.6% | viability, T/C [11] 22.5% | viability, T/C [12] 20% | viability, T/C [13] 22.2% | viability, T/C [14] 22.6% | viability, T/C [15] 25% | viability, T/C [16] 18.9% | viability, T/C [17] 19.8% | viability, T/C [18] 16% | viability, T/C [19] 18.4% | viability, T/C [20] 19% | viability, T/C [21] 21% | viability, T/C [22] 18.1% | viability, T/C [23] 15.7% | viability, T/C [24] 13.3% | viability, T/C [25] 17.1% | viability, T/C [26] 20.5% | viability, T/C [27] 19.5% | viability, T/C [28] 17.4% | viability, T/C [29] 17% | viability, T/C [30] 16.5% | viability, T/C [31] 19.3% | viability, T/C [32] 16.1% | viability, T/C [33] 20.3% | viability, T/C [34] 17.5% | viability, T/C [35] 19.7% | viability, T/C [36] 16.2%

Cc1cccc(N(C)C(=O)C2C(O)CCN2c2nc(C)cc(C(F)(F)F)c2C#N)c1 (stereo not drawn) + Cc1[nH]c2ccc(F)cc2c1-c1nc2c3cccnc3c3ncccc3c2[nH]1
< 31.6 nM: IC50 (second compound 3.16 µM)
inactive: viability, T/C [1] 89% | viability, T/C [2] 77.5% | viability, T/C [3] 89.5% | viability, T/C [4] 39.3% | viability, T/C [5] 61.9% | viability, T/C [6] 61% | viability, T/C [7] 76.3% | viability, T/C [8] 90.3% | viability, T/C [9] 81% | viability, T/C [10] 57.7% | viability, T/C [11] 79% | viability, T/C [12] 69.2% | viability, T/C [13] 71.4% | viability, T/C [14] 85.8% | viability, T/C [15] 97.8% | viability, T/C [16] 48.6% | viability, T/C [17] 77.5% | viability, T/C [18] 72.4% | viability, T/C [19] 62.8% | viability, T/C [20] 65.3% | viability, T/C [21] 72.4% | viability, T/C [22] 54.9% | viability, T/C [23] 49.9% | viability, T/C [24] 54.2% | viability, T/C [25] 37.2% | viability, T/C [26] 40.3% | viability, T/C [27] 54.2% | viability, T/C [28] 48.6% | viability, T/C [29] 39.1% | viability, T/C [30] 41.3% | viability, T/C [31] 65.1% | viability, T/C [32] 58.8% | viability, T/C [33] 80.8% | viability, T/C [34] 55.1% | viability, T/C [35] 81% | viability, T/C [36] 56.4%
> 10000 nM: IC50 (second compound 0.1 µM) | IC50 (second compound 0.316 µM) | IC50 (second compound 1 µM) | IC50 (second compound 10 µM)
3160 nM: IC50 (second compound 0.0316 µM)
